From US8394971B2, “Indole derivatives as selective androgen receptor modulators (SARMS)” (Janssen Pharmaceutica N.V., priority 2004, dated 2013)

What was measured:
[1] = system: testosterone-enhanced ventral prostate and seminal vesicle weights in castrated male Sprague Dawley rats; test: Ventral Prostate and Seminal Vesicle Weight In Vivo Assay; set-up: species or system rat; settings: immature castrated rats; once daily for five days, usually orally at 40 mg/kg, with testosterone propionate 2 mg/kg s.c.
Method in brief: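 Immature (~50 g) castrated Sprague Dawley rats dosed once daily for five days with compound (usually oral, 40 mg/kg, cyclodextrin or methylcellulose vehicle) plus testosterone propionate 2 mg/kg s.c. Wet ventral prostate and seminal vesicle weights taken on day six; activity judged by prostate weight or body-weight-adjusted % inhibition.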

[2] = biological target: T1, androgen receptor (adenovirus AdEasy+rAR in L929 cells) (Rattus norvegicus, UniProt P15207); test: L929 Androgen Receptor Functional Assay, Adenovirus Transduction; assay type: cell-based; settings: 3000 nM; for % Activity: L929 agonist testing; for % Inhibition: L929 antagonist testing with R1881
T1 construct: expressed in transfected cells
T1 sequence (P15207 1-902): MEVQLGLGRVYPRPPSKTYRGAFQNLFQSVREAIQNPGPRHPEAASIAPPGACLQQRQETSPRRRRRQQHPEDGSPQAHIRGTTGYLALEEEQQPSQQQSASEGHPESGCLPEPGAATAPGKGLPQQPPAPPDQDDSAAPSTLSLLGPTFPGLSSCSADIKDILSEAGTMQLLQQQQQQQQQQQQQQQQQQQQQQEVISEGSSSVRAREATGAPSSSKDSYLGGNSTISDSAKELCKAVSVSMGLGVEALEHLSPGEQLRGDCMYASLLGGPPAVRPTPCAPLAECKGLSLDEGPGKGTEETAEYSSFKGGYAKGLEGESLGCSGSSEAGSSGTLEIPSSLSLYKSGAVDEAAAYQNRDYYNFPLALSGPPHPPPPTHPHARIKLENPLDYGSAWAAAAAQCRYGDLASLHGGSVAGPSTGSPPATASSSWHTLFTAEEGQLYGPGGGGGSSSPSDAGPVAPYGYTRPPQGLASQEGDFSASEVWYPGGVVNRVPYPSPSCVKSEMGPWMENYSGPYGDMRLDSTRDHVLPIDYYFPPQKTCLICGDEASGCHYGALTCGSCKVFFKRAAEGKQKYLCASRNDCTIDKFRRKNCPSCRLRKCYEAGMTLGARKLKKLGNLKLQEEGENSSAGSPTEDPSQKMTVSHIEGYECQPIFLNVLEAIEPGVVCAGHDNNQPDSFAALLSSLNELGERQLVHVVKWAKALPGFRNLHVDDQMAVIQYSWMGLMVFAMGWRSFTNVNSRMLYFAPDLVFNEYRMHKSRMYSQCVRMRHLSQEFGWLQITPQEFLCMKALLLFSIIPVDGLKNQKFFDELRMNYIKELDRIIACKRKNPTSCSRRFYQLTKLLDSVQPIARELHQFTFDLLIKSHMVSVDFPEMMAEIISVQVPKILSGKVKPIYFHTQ
Method in brief: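 L929 cells in phenol red-free, charcoal-stripped serum medium transduced with AdEasy+rAR (moi 1:500) and exposed 48 h at 37 °C to compound alone (agonist mode) or with R1881 (antagonist mode; 2.5 nM as the 2.5× dilution).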

| SMILES | active / inactive (inhibition of testosterone-enhanced prostate weight) [1] | % Activity [2] | % Inhibition [2] |
| --- | --- | --- | --- |
| CC(C)CSCC(C)(O)c1cc2cc([N+](=O)[O-])c(C(F)(F)F)cc2[nH]1 (racemic) [compound 170] | active | 2% | 67% |
| CSCCC(C)(O)c1cc2cc([N+](=O)[O-])c(C(F)(F)F)cc2[nH]1 (racemic) [compound 47] | inactive | 2% | 75% |
| COc1ccc(SCC(C)(O)c2cc3cc(Cl)c(C(F)(F)F)cc3n2S(C)(=O)=O)cc1 (racemic) [compound 130] |  | −5% |  |
| CC(O)(C[S+]([O-])Cc1ccccc1)c1cc2cc([N+](=O)[O-])c(C(F)(F)F)cc2[nH]1 (mixture of isomers) [compound 161] | inactive | 2% |  |
| COc1ccc(S(=O)(=O)CC(C)(O)c2cc3cc(Cl)c(C(F)(F)F)cc3[nH]2)cc1 (racemic) [compound 129] | inactive | −5% | −8% |
